Reference: paper PMC5641083, “Blockage of FOXP3 transcription factor dimerization and FOXP3/AML1 interaction inhibits T regulatory cell activity: sequence optimization of a peptide inhibitor” (Oncotarget, 2017)
Like-named read-outs stand apart in the source and are kept apart here.

Experiments:
CT26 tumor cells [1] = details: AH1 in IFA, P60 50 nanomol/mice/day i.p. day 0 to day 9, 5 × 10^5 cells; cited from earlier work
[2] = target: T1, FOXP3/FOXP3 homodimerization (GST-FOXP3 and FOXP3-His) (Homo sapiens, UniProt Q9BZS1); test: AlphaScreen FOXP3 homodimerization assay; format: biochemical; details: GST-FOXP3 40 nM, FOXP3-His 300 nM
T1 construct: made in house; host or cells: E. coli
T1 sequence (Q9BZS1 1-421): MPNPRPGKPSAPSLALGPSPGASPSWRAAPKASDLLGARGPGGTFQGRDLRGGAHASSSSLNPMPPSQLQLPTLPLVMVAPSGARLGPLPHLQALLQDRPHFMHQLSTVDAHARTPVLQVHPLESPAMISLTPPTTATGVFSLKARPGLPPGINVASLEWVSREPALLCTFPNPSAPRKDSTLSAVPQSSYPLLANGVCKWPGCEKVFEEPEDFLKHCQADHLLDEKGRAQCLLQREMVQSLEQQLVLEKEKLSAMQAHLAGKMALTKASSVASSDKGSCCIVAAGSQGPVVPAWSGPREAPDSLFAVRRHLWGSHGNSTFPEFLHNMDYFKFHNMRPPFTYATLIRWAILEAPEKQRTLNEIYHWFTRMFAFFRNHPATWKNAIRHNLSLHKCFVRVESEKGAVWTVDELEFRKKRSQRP
Text: AML1 is required for IL-2 and IFN-γ gene expression in conventional CD4+ T cells and its interaction with FOXP3 is needed for the immunosuppressive activity of Tregs. On the other hand, it has been described that the leucine zipper region is necessary and sufficient to mediate FOXP3 homo-dimerization, which is required for its function as a transcriptional regulator [13, 15, 20]. Thus, since P60 binds to this FOXP3 intermediate region, we analyzed if it could act as a decoy molecule to inhibit FOXP3 homodimerization or the FOXP3-AML1 heterodimerization. The capacity of FOXP3 to homodimerize was measured using the […] assay platform AlphaScreen™ (Perkin Elmer). Previous protein-cross titration experiment using different concentrations of FOXP3-6His (from 1000 to 0 nM) and GST-FOXP3 (from 300 to 0 nM) allowed us to define the optimal protein concentrations to analyze FOXP3 homodimerization (Figure 2A). […] We also tested if GST tagged FOXP3 was able to interact with AML1 protein tagged with 6 His at the N-terminus. As shown in the cross titration experiments in Figure 2C, a specific FOXP3-AML1 heterodimerization was visualized as an increase in the AlphaScreen signal.
FOXP3/AML1 heterodimerization, as well as FOXP3/FOXP3 homodimerization were analyzed by Alphascreen technology according to the manufacturer's instructions (Perkin Elmer, Benelux) as previously described.

murine Treg cells = format: cell-based, BALB/c mice
Text: Results shown in Figures 1–3 correspond to cell-free assays where peptides can interact directly with its corresponding protein partner. However, FOXP3 binding peptides need to enter into the cell in order to inhibit FOXP3 functions. Once we identified some mutants with higher capacity to bind FOXP3, we studied their capacity to inhibit the suppressor activity of natural Tregs in vitro. Thus, we activated effector T cells with anti-CD3 monoclonal antibody in the presence of Tregs, and analyzed the capacity of each peptide to restore T cell proliferation inhibited by Treg cells. […] Indeed, when results from the point-variant screening are represented as a heat map, it is clear that introduction of an alanine at positions 2, 5 and 11 improved activity of the original P60, whereas alanine mutations at positions 1, 7, 8, 9, 10 and 12 are detrimental (Figure 4C).
Isolation of murine CD4^+CD25^+, and CD4^+CD25^− T-cells was performed from murine spleen cells by using murine regulatory T-cell isolation kit (Miltenyi Biotec, Bergisch Gladbach, Germany) according to manufacturer's instructions. The purity of the resulting T-cell populations was confirmed to be > 95% by flow cytometry.
Inhibition of murine T regulatory cell function was measured in an in vitro assay of T-cell stimulation. CD25+ depleted spleen cells (10^5 cells/well) from BALB/c mice were stimulated in vitro with 2, 5 μg/ml of anti-mouse CD3 antibody (Pharmingen) in the presence/absence of purified Treg cells (10^4 cells/well). T-cell proliferation was measured 3 days later as previously described.

CT26 tumor cells [3] = test: AH1 vaccination and CT26 tumor challenge; format: in vivo, BALB/c mice; details: AH1 in IFA, peptide 10 nanomol/mice/day i.p. 10 days, challenge 10^6 CT26 cells s.c. day 10
Procedure: In those experiments, BALB/c mice were immunized with peptide AH1 emulsified in IFA and treated daily with saline or with 50 nanomol/mice/day of peptide P60 i.p. from day 0 to day 9 after immunization. To study the efficacy of CM-1315, our optimized version of P60, mice immunized with AH1 were treated with 10 nanomol/mice/day of P60 or CM-1315 and challenged at day 10 by s.c. injection with 10^6 CT26 tumor cells (instead of 5 × 10^5 cells used in our previous study). As control, groups of mice were injected with AH1 alone or left untreated.
For tumor rejection experiments, Hepa-129 cells (10^6 cells/mouse), were injected subcutaneously (sc) in C3H/HeN mice (n = 6). Ten days later, when the tumor reached 5 mm in diameter, mice were randomly divided into different experimental groups. A group of mice were treated i.p. with anti-PD1 antibodies (50 μg/mouse). Antibody administration was repeated one week after this first administration. A group of mice treated with anti-PD1 also received the cyclic peptide CM-1215 from days 10 to 20 (50 μg/mice/day). Tumor size, presented as the average of two perpendicular diameters (millimetres), was measured at regular intervals. Mice were sacrificed when the mean tumor diameter was greater than 20 mm. […] Tumor size was monitored twice a week with a calliper and it was expressed according to the formula V = (length × width^2)/2. […]

H-RDFQSFRKMWPFFAM-OH [P60]
Protection against CT26 tumor challenge (in words) (CT26 tumor cells [1]): protected mice from CT26 tumor challenge
Inhibition of FOXP3 homodimerization (in words) [2]: able to impair FOXP3 dimerization in a dose dependent manner
IC50 (murine Treg cells): 38.3 µM
Protection against CT26 tumor challenge (in words) (CT26 tumor cells [3]): only animals treated with CM-1315 remained protected
